Test results published in article PMC7237710, “Thanatin Impairs Lipopolysaccharide Transport Complex Assembly by Targeting LptC–LptA Interaction and Decreasing LptA Stability” (Frontiers in Microbiology, 2020).
In brackets after ≈: the same amount, converted by molar mass. Entries after “also recorded” stand apart in the source; their conditions may differ. Residues, ends and D or L forms follow the SMILES beside them.

What was measured:
[1] = test system: E. coli and other Enterobacterial species; parameters: method as in Zhang et al., 2019; settings: ref Zhang et al., 2019; cited from earlier work
LptC–LptA interaction = settings: yeast two-hybrid system; ref Zhang et al., 2019; cited from earlier work
[2] = test system: E. coli permeabilized mutant NR698; experiment: microbe, parasite or virus in culture; assay type: cell-based, Escherichia coli; settings: 24 h
Procedure: (§1) The minimal inhibitory concentration (MIC) values of thanatin, thanatin scramble, and vancomycin (as a positive control) were assessed with a protocol adapted from [Wiegand et al. (2008)] using 96-well microtiter plates. Stationary phase cultures of the E. coli WT strain MG1655 ([Blattner et al., 1997]), the permeabilized mutants AS19 ([Sekiguchi and Iida, 1967]) and NR698 ([Ruiz et al., 2005]), and the BACTH strain BTH101 ([Karimova et al., 1998]; [Ouellette et al., 2017]) grown at 37°C in LB medium, were diluted in fresh medium adjusting the OD600 to a value of 0.05 and incubated in the presence of twofold decreasing concentrations of the compounds ranging from 64 μg/mL to 62.5 ng/mL. After 24 h of incubation at 37°C, the OD600 was measured by a plate reader (EnSpire Multimode Plate Reader, PerkinElmer). The MIC value was determined as the lowest concentration of compound leading to no detectable growth.

[3] = test system: E. coli permeabilized mutant AS19; experiment: microbe, parasite or virus in culture; assay type: cell-based, Escherichia coli; settings: 24 h
Procedure: as §1

E. coli BTH101 = experiment: microbe, parasite or virus in culture; assay type: cell-based, Escherichia coli
Procedure: as §1

[4] = test system: LptC–LptAm interaction (T25LptC–TM18LptAm, CA); experiment: BACTH assay, inhibition of LptC–LptAm interaction; assay type: cell-based, Escherichia coli; settings: BTH101, 18 h, 30°C, 0.5 mM IPTG, 0.7, 1.0, 1.4 μg/mL (sub-MIC), at least eight technical replicates from two independent experiments
Procedure: (§2) To study protein–protein interactions with the BACTH system, electrocompetent BTH101 cells were co-transformed with each pair of plasmids to be tested (Figure 2A), plated onto LB plates containing selective antibiotics (100 μg/mL ampicillin and 50 μg/mL spectinomycin) and incubated at 30°C for 24–48 h. Interaction efficiencies were quantified by determining the β-galactosidase activities in 96-well microtiter plates according to a protocol adapted from [Paschos et al. (2011)]. For this measurement, at least eight clones from each plasmid combination were analyzed for β-galactosidase activity in two independent experiments. […] The β-galactosidase activity was measured from 20 μL culture diluted in 80 μL PM2 buffer (70 mM Na2HPO4. 12H20, 30 mM NaH2PO4. H2O, 1 mM MgSO4, 0.2 mM MnSO4, pH 7.0) containing 8 mg/mL ortho-nitrophenyl-β-galactoside (ONPG), 0.01% SDS, and 50 mM β-mercaptoethanol. […] The optical densities at 420 and 550 nm were recorded for each sample using a plate reader (EnSpire Multimode Plate Reader, PerkinElmer) and the specific activity was calculated with the formula: Miller units = [OD420 - (1.75 × OD550)]/[t × OD600 × (volume in mL)] × 1000, where OD600 is the optical density at 600 nm after overnight incubation and t is the time in minutes needed for color formation.

E. coli WT strain MG1655 = experiment: MIC determination, WT strain MG1655; assay type: cell-based, Escherichia coli
Procedure: as §1

LptAm = settings: SPR, Biacore T200, CM3 chip, HBS-N; peptide 0, 0.1, 1 μM; listed as Scr
Source text: (§3) Escherichia coli LptC lacking the first 23 residues of the transmembrane domain was expressed from a plasmid (LptC pQESH, QIAGEN) with an N-terminal His-Tag and purified as described ([Laguri et al., 2017]). LptC was expressed in ^15N enriched deuterated medium with specific ^13C-^1H labeling of Isoleucines δ1 and Leucine and Valine proR methyl groups according to standard protocols ([Kerfah et al., 2015]) with NMRbio precursors^1. LptAm coding for residues 28–159 followed by a […] TAG in a pET21b vector was expressed and purified as described ([Laguri et al., 2017]). Both proteins were exchanged to 50 mM Na2HPO4 pH 8.0, 150 mM NaCl buffer.
(§4) Surface plasmon resonance (SPR) experiments were performed on a Biacore T200 with a CM3 chip. HBS-P+ and HBS-N buffers (GE Healthcare) were used for immobilization and interactions, respectively. 66 Resonance units (RUs) of LptAm were immobilized on a flow cell by the amine (EDC-NHS) coupling method followed by ethanolamine saturation, with a flow cell modified only with EDC-NHS-ethanolamine as reference for subtractions. For interactions, protein and ligands were diluted in HBS-N running buffer and regeneration between injections achieved with a 30 s pulse of 10 mM HCl. Sensorgrams shown were subtracted with the reference flow cell as well as with injection of buffer alone.

LptC–LptAm interaction = experiment: SPR, effect on LptC binding to immobilized LptAm; parameters: species or system Escherichia coli; settings: peptide up to 1 μM followed by LptC injection at 10 μM, HBS-N, listed as Scr
Source text: as §3, §4

[5] = test system: LptA–LptA interaction (TM25LptA–TM18LptA, AA); experiment: BACTH assay, inhibition of LptA–LptA interaction; assay type: cell-based, Escherichia coli; settings: BTH101, 18 h, 30°C, 0.5 mM IPTG, 0.7, 1.0, 1.4, 2.8 μg/mL (sub-MIC); at least eight technical replicates from two independent experiments
Procedure: as §2

LptC–LptAm complex = experiment: NMR, disruption of LptC–LptAm complex; assay type: binding, Escherichia coli; settings: 2D-[1H,13C]-methyl-SOFAST, 25°C, 20 μM LptC, 40 μM LptAm, 42 μM peptide, 50 mM Na2HPO4 pH 8.0, 150 mM NaCl, 10% D2O
Procedure: Nuclear magnetic resonance experiments were recorded at 25°C on Bruker 600 MHz spectrometer equipped with a triple resonance cryoprobe. […] Unlabeled LptAm at 40 μM prepared in the exact same buffer was added to LptC to achieve 100% of LptC complexed with LptAm. Thanatin or Scr at 42 μM was added to the complex and interaction experiments were followed using 2D-[^1H, ^13C]-methyl-SOFAST experiments. NMR experiments were processed and analyzed using Topspin 3.2 and CcpNmr 2.4.

[6] = test system: permeabilized E. coli mutants (AS19 and NR698); experiment: MIC, permeabilized E. coli mutants; assay type: cell-based, Escherichia coli; settings: permeabilized mutant strains; in words
Procedure: as §1

[7] = test system: Pseudomonas aeruginosa LptD; settings: ref Srinivas et al., 2010; Lehman and Grabowicz, 2019; cited from earlier work
Source text: (§5) Due to its relevance in Gram-negative bacteria cell physiology, LPS biogenesis can be considered a promising target for the development of novel antibacterial molecules. Potent inhibitors of the lipid A biosynthesis were identified in past studies and are continuously in development ([Simpson and Trent, 2019]). Moreover, two compounds targeting the MsbA-mediated IM translocation process have been recently reported ([Ho et al., 2018]; [Zhang et al., 2018]). However, the only inhibitor of LPS biogenesis to have entered, so far, Phase III trials is Murepavadin, a macrocyclic peptidomimetic select ...

[8] = in vivo; cited from earlier work
Source text: as §5

[9] = molecular target: T1, His6-LptC_(24-191), LptC lacking the first 23 residues of the transmembrane domain (Escherichia coli, UniProt P0ADV9 24-191); experiment: SPR; settings: both partners purified
T1 sequence (looked up): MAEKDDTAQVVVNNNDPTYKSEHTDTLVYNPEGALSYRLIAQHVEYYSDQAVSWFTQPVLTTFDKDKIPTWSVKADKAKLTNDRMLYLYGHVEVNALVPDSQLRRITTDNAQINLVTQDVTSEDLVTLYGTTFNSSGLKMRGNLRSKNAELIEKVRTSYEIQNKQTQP

immobilized LptAm = experiment: SPR, Kd of LptC–LptAm; parameters: species or system Escherichia coli; settings: LptC (5.6–100 μM) over immobilized LptAm, CM3 chip, HBS-N, steady-state binding levels, read-out: Kd of LptC–LptAm interaction
Source text: as §3, §4

Molecule: Clc1cc2c(c3ncccc13)OCN(CCc1ccccc1)C2 [IMB-881]
- bactericidal activity [1]: bactericidal activity
- disruption of LptC–LptA interaction (LptC–LptA interaction): inhibiting LptC–LptA interaction; also recorded: disrupts LptC–LptA interaction

Molecule: CC[C@H](C)[C@H](NC(=O)[C@H](CS)NC(=O)[C@@H](NC(=O)[C@@H](N)Cc1ccc(O)cc1)C(C)C)C(=O)N[C@@H](CCCNC(=N)N)C(=O)N[C@@H](CCSC)C(=O)N[C@@H](CC(N)=O)C(=O)N[C@@H](CCCCN)C(=O)N[C@H](C(=O)N[C@@H](CO)C(=O)N1CCC[C@H]1C(=O)N[C@@H](CCCCN)C(=O)N[C@@H](CCC(N)=O)C(=O)N[C@@H](CCCNC(=N)N)C(=O)N[C@H](C(=O)N1CCC[C@H]1C(=O)NCC(=O)NCC(=O)N[C@@H](CCCNC(=N)N)C(=O)N[C@@H](CS)C(=O)N[C@@H](CCCCN)C(=O)O)[C@@H](C)O)[C@@H](C)CC [Thanatin scramble] (H-YVCIRMNKISPKQRTPGGRCK-OH; N-terminus and C-terminus assumed)
- MIC ([2]; NR698, LB, 37°C, start OD600 0.05, twofold dilutions 64 μg/mL to 62.5 ng/mL, OD600 read-out): 32 to 64 mg/L
- MIC ([3]; AS19, LB, 37°C, start OD600 0.05, twofold dilutions 64 μg/mL to 62.5 ng/mL, OD600 read-out): 64 mg/L (≈ 26.3 µM)
- MIC (E. coli BTH101; BTH101, LB, 24 h, 37°C, start OD600 0.05, twofold dilutions 64 μg/mL to 62.5 ng/mL, OD600 read-out): >64 mg/L
- effect on LptC–LptAm interaction (β-galactosidase activity) [4]: fails to disrupt the LptC–LptA interaction in vivo (BACTH assay)
- effect on LptC–LptAm interaction (β-galactosidase activity) ([4]; listed as thanatin scramble): not capable of disrupting these periplasmic interactions in a dose-dependent manner
- MIC (E. coli WT strain MG1655; MG1655, LB, 24 h, 37°C, start OD600 0.05, twofold dilutions 64 μg/mL to 62.5 ng/mL, OD600 read-out): above 64 μg/mL
- antibacterial activity (E. coli WT strain MG1655; scrambled vs thanatin, in words): loses the antibacterial activity
- binding to immobilized LptAm (LptAm): no or little binding
- effect on LptC binding to immobilized LptAm (LptC–LptAm interaction): no effect on LptC binding
- effect on LptA–LptA interaction (β-galactosidase activity) [5]: not capable of disrupting these periplasmic interactions in a dose-dependent manner
- disruption of LptC–LptAm complex (175Ile and 184Ile δ1 methyl shifts) (LptC–LptAm complex): did not change LptC–LptAm spectra; also recorded: fails to disrupt the LptC–LptA interaction in vivo (BACTH assay) and in vitro (NMR)
- disruption of LptC–LptAm complex (175Ile and 184Ile δ1 methyl shifts) (LptC–LptAm complex; listed as thanatin scramble): no disruption of the LptC–LptAm complex
- MIC relative to WT strain / antibacterial activity [6]: no significant difference relative to the WT strain

Molecule: CN[C@H](CC(C)C)C(=O)N[C@H]1C(=O)N[C@@H](CC(N)=O)C(=O)N[C@H]2C(=O)N[C@H]3C(=O)N[C@H](C(=O)N[C@H](C(=O)O)c4cc(O)cc(O)c4-c4cc3ccc4O)[C@H](O)c3ccc(c(Cl)c3)Oc3cc2cc(c3O[C@@H]2O[C@H](CO)[C@@H](O)[C@H](O)[C@H]2O[C@H]2C[C@](C)(N)[C@H](O)[C@H](C)O2)Oc2ccc(cc2Cl)[C@H]1O [Vancomycin, reference compound]
- MIC ([2]; Escherichia coli): 0.5 to 1 mg/L (≈ 0.345 to 0.69 µM)
- MIC ([3]; Escherichia coli): 4 to 8 mg/L (≈ 2.76 to 5.52 µM)
- MIC (E. coli BTH101; Escherichia coli, BTH101, 24 h): > 64 mg/L
- MIC (E. coli WT strain MG1655; Escherichia coli, MG1655, 24 h): > 64 mg/L

Molecule: Murepavadin
- target selectivity [7]: selectively directed against Pseudomonas aeruginosa LptD
- clinical toxicity [8]: nephrotoxicity

B1: LptAm, LptA residues 28-159 followed by a … tag (purified) (domain or fragment, Escherichia coli, UniProt P0ADV1 28-159, looked up)
chain: VTGDTDQPIHIESDQQSLDMQGNVVTFTGNVIVTQGTIKINADKVVVTRPGGEQGKEVIDGYGKPATFYQMQDNGKPVEGHASQMHYELAKDFVVLTGNAYLQQVDSNIKGDKITYLVKEQKMQAFSDKGKR
notes: also called LptAΔ_(160–185)-His6; monomeric version of LptA; source: E. coli BL21(DE3) (pET21b vector), purified as described (Laguri et al., 2017)
- Kd [9]: 80 ± 44 µM

B2: LptC: Escherichia coli LptC lacking the first 23 residues of the transmembrane domain, with an N-terminal His-Tag (protein, UniProt P0ADV9 24-191, looked up, fragment)
chain: MAEKDDTAQVVVNNNDPTYKSEHTDTLVYNPEGALSYRLIAQHVEYYSDQAVSWFTQPVLTTFDKDKIPTWSVKADKAKLTNDRMLYLYGHVEVNALVPDSQLRRITTDNAQINLVTQDVTSEDLVTLYGTTFNSSGLKMRGNLRSKNAELIEKVRTSYEIQNKQTQP
modifications: N-terminal His-tag
notes: Escherichia coli LptC lacking the first 23 residues of the transmembrane domain, with an N-terminal His-Tag
- Kd (immobilized LptAm): 80 ± 44 µM
